Measured values taken from PubChem BioAssay AID1918953 (Molecular Pharmacology Branch, DTP, NCI, 2023).

Tested on: MDA-MB-231 complex spheroid viability
Experiment: Anticancer human tumor MDA-MB-231/ATCC cell line growth inhibition;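 further: drug exposure lasted 7 days starting on day 3 of spheroid growth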
Conditions: for IC50: curve of first compound; for viability, T/C: stronger effect = lower value
Procedure, shortened: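 Complex spheroids of tumor cells with HUVEC and human MSCs, exposed to iadademstat combined with other agents. Each agent tested in half-log steps from near clinical Cmax (else 10 microM top), DMSO ≤0.25%.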

[1] = second compound 0.1 µM, first compound 0.0316 µM
[2] = second compound 0.1 µM, first compound 0.1 µM
[3] = second compound 0.1 µM, first compound 0.316 µM
[4] = second compound 0.1 µM, first compound 1 µM
[5] = second compound 0.1 µM, first compound 3.16 µM
[6] = second compound 0.1 µM, first compound 10 µM
[7] = second compound 0.316 µM, first compound 0.0316 µM
[8] = second compound 0.316 µM, first compound 0.1 µM
[9] = second compound 0.316 µM, first compound 0.316 µM
[10] = second compound 0.316 µM, first compound 1 µM
[11] = second compound 0.316 µM, first compound 3.16 µM
[12] = second compound 0.316 µM, first compound 10 µM
[13] = second compound 1 µM, first compound 0.0316 µM
[14] = second compound 1 µM, first compound 0.1 µM
[15] = second compound 1 µM, first compound 0.316 µM
[16] = second compound 1 µM, first compound 1 µM
[17] = second compound 1 µM, first compound 3.16 µM
[18] = second compound 1 µM, first compound 10 µM
[19] = second compound 3.16 µM, first compound 0.0316 µM
[20] = second compound 3.16 µM, first compound 0.1 µM
[21] = second compound 3.16 µM, first compound 0.316 µM
[22] = second compound 3.16 µM, first compound 1 µM
[23] = second compound 3.16 µM, first compound 3.16 µM
[24] = second compound 3.16 µM, first compound 10 µM
[25] = second compound 10 µM, first compound 0.0316 µM
[26] = second compound 10 µM, first compound 0.1 µM
[27] = second compound 10 µM, first compound 0.316 µM
[28] = second compound 10 µM, first compound 1 µM
[29] = second compound 10 µM, first compound 3.16 µM
[30] = second compound 10 µM, first compound 10 µM
[31] = second compound 0.1 µM, first compound 0.00316 µM
[32] = second compound 0.1 µM, first compound 0.01 µM
[33] = second compound 0.316 µM, first compound 0.00316 µM
[34] = second compound 0.316 µM, first compound 0.01 µM
[35] = second compound 1 µM, first compound 0.00316 µM
[36] = second compound 1 µM, first compound 0.01 µM
[37] = second compound 3.16 µM, first compound 0.00316 µM
[38] = second compound 3.16 µM, first compound 0.01 µM
[39] = second compound 10 µM, first compound 0.00316 µM
[40] = second compound 10 µM, first compound 0.01 µM

## CC(C)c1c(-c2ccccc2)nc2c(C#N)c[nH]n2c1=O + NC1CCC(NC2CC2c2ccccc2)CC1
Second compound 0.1 µM
  IC50: > 10000 nM
Second compound 0.316 µM
  IC50: > 10000 nM
Second compound 1 µM
  IC50: > 10000 nM
Second compound 3.16 µM
  IC50: > 10000 nM
Second compound 10 µM
  IC50: > 10000 nM
[1]
  viability, T/C: 108%
[2]
  viability, T/C: 108%
[3]
  viability, T/C: 101%
[4]
  viability, T/C: 102%
[5]
  viability, T/C: 105%
[6]
  viability, T/C: 103%
[7]
  viability, T/C: 109%
[8]
  viability, T/C: 106%
[9]
  viability, T/C: 106%
[10]
  viability, T/C: 111%
[11]
  viability, T/C: 110%
[12]
  viability, T/C: 104%
[13]
  viability, T/C: 101%
[14]
  viability, T/C: 100%
[15]
  viability, T/C: 102%
[16]
  viability, T/C: 109%
[17]
  viability, T/C: 106%
[18]
  viability, T/C: 103%
[19]
  viability, T/C: 86.6%
[20]
  viability, T/C: 90.4%
[21]
  viability, T/C: 87.6%
[22]
  viability, T/C: 88.5%
[23]
  viability, T/C: 94.2%
[24]
  viability, T/C: 87.3%
[25]
  viability, T/C: 64.5%
[26]
  viability, T/C: 69.2%
[27]
  viability, T/C: 70.2%
[28]
  viability, T/C: 73.7%
[29]
  viability, T/C: 71.1%
[30]
  viability, T/C: 66.5%

## CC1COCCN1c1cc(-c2ccnn2C)c2ccnc(-c3ccn[nH]3)c2n1 (stereo not given) + NC1CCC(NC2CC2c2ccccc2)CC1
Second compound 0.1 µM
  IC50: 31.1 nM
Second compound 0.316 µM
  IC50: 34.3 nM
Second compound 1 µM
  IC50: 25.7 nM
Second compound 3.16 µM
  IC50: 16.5 nM
Second compound 10 µM
  IC50: 10.7 nM
[31]
  viability, T/C: 102%
[32]
  viability, T/C: 77.8%
[1]
  viability, T/C: 50.4%
[2]
  viability, T/C: 33.3%
[3]
  viability, T/C: 28.4%
[4]
  viability, T/C: 28.8%
[33]
  viability, T/C: 93.7%
[34]
  viability, T/C: 73.8%
[7]
  viability, T/C: 50.7%
[8]
  viability, T/C: 37.4%
[9]
  viability, T/C: 29.3%
[10]
  viability, T/C: 28.9%
[35]
  viability, T/C: 90%
[36]
  viability, T/C: 69.4%
[13]
  viability, T/C: 45.8%
[14]
  viability, T/C: 34.5%
[15]
  viability, T/C: 27.4%
[16]
  viability, T/C: 30.7%
[37]
  viability, T/C: 72.8%
[38]
  viability, T/C: 57.4%
[19]
  viability, T/C: 40.2%
[20]
  viability, T/C: 33%
[21]
  viability, T/C: 29.3%
[22]
  viability, T/C: 30.7%
[39]
  viability, T/C: 56.9%
[40]
  viability, T/C: 51%
[25]
  viability, T/C: 32.8%
[26]
  viability, T/C: 30%
[27]
  viability, T/C: 28%
[28]
  viability, T/C: 28.9%

## COc1ccc([C@@H](O)c2cc(-c3ncnc4cc(N5CCOCC5)ccc34)c(F)cc2Cl)nn1 + NC1CCC(NC2CC2c2ccccc2)CC1
Second compound 0.1 µM
  IC50: 483 nM
Second compound 0.316 µM
  IC50: 555 nM
Second compound 1 µM
  IC50: 669 nM
Second compound 3.16 µM
  IC50: 505 nM
Second compound 10 µM
  IC50: 280 nM
[1]
  viability, T/C: 89.3%
[2]
  viability, T/C: 75.7%
[3]
  viability, T/C: 55.6%
[4]
  viability, T/C: 40.3%
[5]
  viability, T/C: 27.9%
[6]
  viability, T/C: 24.6%
[7]
  viability, T/C: 91.5%
[8]
  viability, T/C: 79.3%
[9]
  viability, T/C: 59.1%
[10]
  viability, T/C: 41.2%
[11]
  viability, T/C: 27.6%
[12]
  viability, T/C: 26%
[13]
  viability, T/C: 96.6%
[14]
  viability, T/C: 79.8%
[15]
  viability, T/C: 65.7%
[16]
  viability, T/C: 41.9%
[17]
  viability, T/C: 28.9%
[18]
  viability, T/C: 23.8%
[19]
  viability, T/C: 74.2%
[20]
  viability, T/C: 72.1%
[21]
  viability, T/C: 54.2%
[22]
  viability, T/C: 42.3%
[23]
  viability, T/C: 27.2%
[24]
  viability, T/C: 24.4%
[25]
  viability, T/C: 62.8%
[26]
  viability, T/C: 61%
[27]
  viability, T/C: 47.5%
[28]
  viability, T/C: 36.5%
[29]
  viability, T/C: 28%
[30]
  viability, T/C: 24.3%

## O=C(C=Cn1cnc(-c2cc(C(F)(F)F)cc(C(F)(F)F)c2)n1)NNc1cnccn1 + NC1CCC(NC2CC2c2ccccc2)CC1
Second compound 0.1 µM
  IC50: 5.44 nM
Second compound 0.316 µM
  IC50: 4.93 nM
Second compound 1 µM
  IC50: 6.56 nM
Second compound 3.16 µM
  IC50: 6.04 nM
Second compound 10 µM
  IC50: < 3.16 nM
[31]
  viability, T/C: 61.7%
[32]
  viability, T/C: 37%
[1]
  viability, T/C: 14.9%
[2]
  viability, T/C: 10.4%
[3]
  viability, T/C: 9%
[4]
  viability, T/C: 6.32%
[33]
  viability, T/C: 58.9%
[34]
  viability, T/C: 36.2%
[7]
  viability, T/C: 15%
[8]
  viability, T/C: 11.4%
[9]
  viability, T/C: 7.56%
[10]
  viability, T/C: 5.07%
[35]
  viability, T/C: 64.6%
[36]
  viability, T/C: 41.7%
[13]
  viability, T/C: 15.4%
[14]
  viability, T/C: 11.4%
[15]
  viability, T/C: 8.75%
[16]
  viability, T/C: 6.54%
[37]
  viability, T/C: 56%
[38]
  viability, T/C: 45.4%
[19]
  viability, T/C: 13.9%
[20]
  viability, T/C: 11.2%
[21]
  viability, T/C: 8.03%
[22]
  viability, T/C: 6.06%
[39]
  viability, T/C: 49.2%
[40]
  viability, T/C: 34.5%
[25]
  viability, T/C: 14%
[26]
  viability, T/C: 9.12%
[27]
  viability, T/C: 7.43%
[28]
  viability, T/C: 5.83%
